Values of other authors as cited in patent US10976308B2, “Plant-derived nanofibrillar cellulose hydrogel for cell culture and chemical testing” (UPM-KYMMENE CORPORATION, priority 2014, dated 2021).

Legend:
3D liver models = conditions: by Khetani et al. 2013
[1] = by Khetani et al. 2013

Cmax [1] [µM] | SMILES | Toxicity in 3D liver models (3D liver models)
– | CN(C)CCCN1c2ccccc2CCc2ccccc21 [imipramine] | toxicity is not detected in all 3D models tested
8 | O=C(O)Cc1ccccc1Nc1c(Cl)cccc1Cl [diclofenac] | –
0.2 | CC(C)NCC(O)COc1cccc2ccccc12 (stereo not shown) [propranolol] | not detected in the 3D liver models
